Measurements reported in patent EP3331365B1, “AGENT FOR FIGHTING FISH PARASITES” (Pharmaq AS, priority 2015, dated 2017).

Key:
Format in all cases: in vivo
[1] = test system: tilapia (Oreochromis niloticus); assay: Toxicity to fish, intraperitoneal injection
Description: . Tilapia of mean weight of 158 grams reared in freshwater at 29°C were distributed in three groups of 10 fish. Each group was injected with 0.05 ml of the relevant formulation, or PBS control.

[2] = test system: Lepeophtheirus salmonis; assay: Lesa assay: bioassay on salmon lice, 1 hour exposure in seawater; details: monitored until 96 hours post exposure, 8-10 °C
Description: The stock was then diluted in saltwater to the appropriate concentration.
Control formulations were also prepared comprising only solvent (acetone) and solubilizer (Kolliphor EL) in the same ratio as the test formulation. A salt water control was also used.
Bioassay experiments were then conducted on copepodites and pre-adult/adult salmon lice (Lepeophtheirus salmonis).
After 1 hour exposure, the lice were transferred to modified 6 well plates and washed twice in saltwater. The plates were then incubated and the numbers of dead and surviving lice were monitored until 96 hours post exposure. The experimental temperature was maintained at 8-10 °C.

[3] = test system: sea lice (L. salmonis); assay: Bath treatment of sea lice infested Atlantic salmon: count of attached female sea lice; details: 2ppm for 60 minutes by bath; 12°C seawater; counted three days after treatment
Description: Diafenthiuron was tested for use in treating fish parasites.
Atlantic salmon were acclimatized to 12°C seawater.
Three days after treatment the number of attached female sea lice was counted. The number of adult female sea lice was reduced by 56% in the treated group.

SMILES: CC(C)c1cc(Oc2ccccc2)cc(C(C)C)c1NC(=S)NC(C)(C)C [Diafenthiuron, 1-tert-butyl-3-(2,6-diisopropyl-4-phenoxyphenyl)thiourea]
- % mortality ([1]; 0.05 ml of 25 mg/ml in PEG400 (85%)/DMSO (15%), intraperitoneal injection, 5 days, same mortality in group without diafenthiuron): 10%
- No. of fish healthy after 5 days ([1]; 0.05 ml of 25 mg/ml in PEG400 (85%)/DMSO (15%), intraperitoneal injection, freshwater 29°C, 10 fish): 9/10
- treated fish alive and healthy ([1]; five days after treatment, 25 mg/ml in PEG400/DMSO, 0.05 ml intraperitoneal injection): 90%
- % dead ([2]; Copepodites, 0.5 ppm): 77%
- Dead/total ([2]; Copepodites, 0.5 ppm): 10/13
- % dead ([2]; Copepodites, 2.0 ppm): 100%
- Dead/total ([2]; Copepodites, 2.0 ppm): 20/20
- % dead ([2]; Copepodites, 20 ppb): 48%
- Dead/total ([2]; Copepodites, 20 ppb): 11/23
- % dead ([2]; Pre-adult/adult, 2.0 ppm): 100%
- Dead/total ([2]; Pre-adult/adult, 2.0 ppm): 5/5
- reduction of the number of adult female sea lice [3]: 56%
